# Assay results as given in US10202343B2, “MIF modulators” (YALE UNIVERSITY, priority 2008, dated 2019).
# Where two headings read alike, the source gives them in different places.
# Experiments:
# MIF tautomerase activity = molecular target: T1, MIF tautomerase activity (Homo sapiens, UniProt P14174); details: literature, Cheng & Al-Abed 2006; cited from earlier work
# T1 sequence (P14174 2-115 limits assumed): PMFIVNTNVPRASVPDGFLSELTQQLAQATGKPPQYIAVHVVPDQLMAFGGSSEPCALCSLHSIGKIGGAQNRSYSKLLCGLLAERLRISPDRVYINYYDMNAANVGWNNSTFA
# [1] = molecular target: T2, MIF-CD74 Binding (biotin-labeled recombinant human MIF, recombinant human MIF receptor CD74 ectodomain) (Homo sapiens, UniProt P14174); assay: MIF-CD74 binding (capture) assay; details: for CD74 % MaxInhib: number before @; for CD74 IC50: Table 6, data cell c9
# T2 sequence (P14174 2-115 limits assumed): T1 sequence (P14174 2-115 limits assumed)
# Method: The biologically more significant assay is a “capture” assay using immobilized, recombinant MIF receptor ectodomain and biotinylated recombinant MIF (Leng, L., et al. (2003), MIF signal transduction initiated by binding to CD74. J. Exp. Med. 197, 1467-1476). This allows measurement of the inhibition or enhancement of the binding of MIF to its receptor induced by an addend.
# Coat 96 well plates with 60 μl/well of 26 ng/μl purified, recombinant human MIF receptor (CD74 ectodomain or CD74^73-232). Incubate at 4° C. overnight. Wash the plate 4 times with 250 μl/well TTBS and add 100 μl/well of superblock (Pierce, Ill.). Incubate at 4° C. overnight. Remove the superblock and add mixture of compound and biotin-labeled recombinant human MIF incubated at 4° C. overnight. (Each compound was pre-incubated at various concentrations with 2 ng/μl 0.2 μM biotin-MIF for 2 hours at room temperature in the dark). After washing the plate 4 times with 250 μl/well TTBS, 60 μl/well of Strepavidin-AP (R&D Systems) was added and incubated for 1 hr at room temperature in the dark. Wells were then washed as before and 60 μl/well of PNPP (Sigma) was added, allowing the color to develop in the dark at room temperature and then read at OD405 nm.
# [2] = molecular target: T3, Human MIF (MIF tautomerase activity) (Homo sapiens, UniProt P14174); assay: HPP tautomerase assay; format: biochemical; details: for HPP % MaxInhib: number before @; for HPP IC50: Table 8
# T3 construct: made in house
# T3 sequence (P14174 2-115 limits assumed): T1 sequence (P14174 2-115 limits assumed)
# Method: The HPP assay used was adapted to the microtiter plate format. […] Dilutions of the enzyme were prepared in 50 mM sodium phosphate buffer, 1 mM EDTA, pH 6.5. HPP was obtained from Aldrich. A stock solution of 60 mM HPP in ethanol is prepared and kept for maximally 4 hours on ice. The working solution (600 μM) of the substrate was prepared by diluting an aliquot of the stock solution with 50 mM sodium phosphate buffer, 1 mM EDTA, pH 6.5. […] Inhibitor and enzyme solutions were pipetted manually using an Eppendorf 12-channel pipette. Addition of substrate to start the reaction was performed with an Igel 96 pipetting station (OpalJena, Jena, Germany), which allows simultaneous addition of fluid to all 96 wells of the plates. Optical density (OD) was determined using a SPECTRAmax 250 reader (Molecular Devices). The reader was operated with the SoftmaxPro 2.6.1 software. Assay: Three wells of the microtiter plates were filled with buffer only, to allow for blanking. […] The last step was performed using the 96-channel pipetting device. The plate was then immediately (i.e. within a few seconds) transferred manually to the SPECTRAmax 250 reader and the optical density was determined (310 nm). From the data obtained, IC50 values were calculated using Excel® and XLfit® software.
# [3] = press release, cited from earlier work
# ovarian cancer cell line = assay: growth of an ovarian cancer cell line; format: cell-based
# Source text: KSP inhibitor ARRY-520 is used as a substitute for Paclitaxel in Type I ovarian cancer cells. J Transl Med. 7:63.
# [4] = system: MIF-dependent signal transduction (ERK1/2 phosphorylation); assay: MIF-dependent signal transduction in cells (ERK1/2 phosphorylation); format: cell-based; details: compared to isoxazoline-1
# Method: Two additional assays were performed on compounds according to the present invention. In the first, MIF-dependent signal transduction in cells as evidenced by a reduction in ERK1/2 phosphorylation and its inhibitory action is compared to the known small molecule MIF antagonist, isoxazoline-1 following the assay reported in Leng L., Metz C, Fang Y, Xu J, Donnelly S, Baugh J, Delonery T, Chen Y, Mitchell R A, and Bucala R. 2003. MIF Signal Transduction Initiated by Binding to CD74. J Exp Med 197, 1467-1476.
# [5] = Table 6, data cell c7, read-out: HPP IC50
smiles,measurement,setting,value
CC(C)(C)OC(=O)C[C@H]1CC(c2ccc(O)c(F)c2)=NO1 [(R)-17],potency (inhibition of MIF tautomerase activity),MIF tautomerase activity,0.55 µM
"Ic1cc(-c2ccccc2)ncn1 [Compound 4-IPP, 4-iodo-6-phenylpyrimidine, reference compound]",activity in the capture assay,[1],inactive
same,IC50,[2]; read-out: inhibitor in the HPP tautomerase assay,4.5 µM
same,anti-tumor activity,[3]; by blocking tumor-specific angiogenesis,exhibits anti-tumor activity
same,safety profile,[3]; laboratory studies,favorable safety profile
N#Cc1ccc2c(=O)n(-c3ccc(Cl)cc3)sc2c1 [Compound 37],Capture % Max. Inhib.,[1]; Table 3,16%
same,CD74 % MaxInhib,"[1]; Table 6, data cell c8",16%
same,IC50,"[2]; Table 3, read-out: HPP IC50",3.1 µM
same,IC50,[2]; [5],3.1 µM
same,activity in the ovarian cancer assay (growth inhibition),ovarian cancer cell line,significant activity
Cc1ccc2oc(=O)n(Cc3cccc(O)c3)c2c1 [Compound 098],concentration of CD74 % MaxInhib (number after @),[1]; Table 4,0.0078 µM
same,IC50,"[2]; Table 4, read-out: HPP IC50",0.01 µM
same,inhibitory action on MIF-dependent ERK1/2 phosphorylation,[4],significant inhibitory action
same,activity in the ovarian cancer assay (growth inhibition),ovarian cancer cell line,significant activity
O=c1oc2ccc(F)cc2n1Cc1cccc(O)c1 [MIF-108],activity in the ovarian cancer assay (growth inhibition),ovarian cancer cell line,significant activity
Fc1ccc2[nH]c(-c3ccc(Cl)cc3)cc2c1 [MIF-128],concentration of CD74 % MaxInhib (number after @),[1]; Table 10,0.0039 µM
same,CD74 % MaxInhib,[1]; Table 10,20%
same,IC50,"[2]; Table 10, read-out: HPP IC50",280 µM
Fc1ccc2nn(-c3ccc(Cl)cc3)cc2c1 [MIF-129],concentration of CD74 % MaxInhib (number after @),[1]; Table 11,0.12 µM
same,CD74 % MaxInhib,[1]; Table 11,27%
same,IC50,"[2]; Table 11, read-out: HPP IC50",490 µM
Fc1ccc2[nH]c(-c3ccc(Cl)cc3)nc2c1 [MIF-130],concentration of CD74 % MaxInhib (number after @),[1]; Table 12,0.34 µM
same,CD74 % MaxInhib,[1]; Table 12,21%
same,HPP % MaxInhib,[2]; Table 12,28%
Fc1ccc2cn(-c3ccc(Cl)cc3)nc2c1 [MIF-131],concentration of CD74 % MaxInhib (number after @),[1]; Table 11,0.12 µM
same,CD74 % MaxInhib,[1]; Table 11,29%
same,HPP % MaxInhib,[2]; Table 11,30%
O=c1c2ccc(F)cc2sn1-c1cccc(Cl)c1 [MIF-132],concentration of CD74 % MaxInhib (number after @),[1]; Table 6,0.078 µM
same,CD74 % MaxInhib,"[1]; Table 6, data cell c8",20%
same,IC50,[2]; [5],5 µM
N#Cc1ccc(-n2sc3cc(F)ccc3c2=O)cc1 [MIF-133],concentration of CD74 % MaxInhib (number after @),[1]; Table 6,0.078 µM
same,IC50,[2]; [5],6.4 µM
O=c1c2ccc(F)c(F)c2sn1-c1ccc(Cl)cc1 [MIF-134],concentration of CD74 % MaxInhib (number after @),[1]; Table 6,3.76 µM
same,CD74 % MaxInhib,"[1]; Table 6, data cell c8",11%
same,IC50,[2]; [5],5.6 µM
c1ccc(-c2nc3ccccc3s2)cc1 [MIF-137],concentration of CD74 % MaxInhib (number after @),[1]; Table 8,0.078 µM
same,HPP IC50,[2],agonist
Cc1ccc2nc(-c3ccccc3)sc2c1 [MIF-138],concentration of CD74 % MaxInhib (number after @),[1]; Table 8,0.078 µM
same,CD74 % MaxInhib,[1]; Table 8,20%
same,HPP IC50,[2],agonist
O=c1c2cc(F)ccc2sn1-c1ccc(Cl)cc1 [MIF-141],CD74 IC50,[1],agonist
same,IC50,[2]; [5],5.6 µM
COc1ccc(-n2sc3ccc(F)cc3c2=O)cc1 [MIF-142],CD74 IC50,[1],agonist
same,IC50,[2]; [5],6.5 µM
O=c1c2cc(F)c(F)cc2sn1-c1ccc(Cl)cc1 [MIF-143],CD74 IC50,[1],agonist
same,IC50,[2]; [5],4.9 µM
